PubChem BioAssay AID1902 (Broad Institute, 2009)
Activity calls are given as the source filed them.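 Rule for the calls: active = EC50 no more than a set limit of log units above the highest dose; inactive = the rest.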

The molecules below were run against S. pyogenes SKKanGAS, kanamycin survival, BacTiterGlo, 6 h (assay: SKKanGAS survival reduction under kanamycin, dose response, streptokinase promoter inhibitor project, SKKanGAS strain, luminescence, dose confirmation (AID 1902);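 note: lower survival reflects blocked streptokinase promoter driving kanamycin resistance gene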).

SMILES | EC50
O=C(Nc1nnc(SCc2ccc(F)cc2)s1)c1ccc2c(c1)C(=O)N(c1ccccc1Cl)C2=O | 6.26 µM
Nc1nc(-c2ccccn2)nc(N)c1Cc1ccc(Cl)cc1Cl | 5.03 µM
CCCc1ccc(OCC(=O)NNC(=S)NC(=O)c2ccco2)cc1 | < 0.06 µM
Oc1cccc(-c2nc3ccc4ccccc4c3c3c2CCC3)c1 | 8.4 µM
Cc1cc2c(cc1C)CSC(c1c(O)ccc3ccccc13)SC2 | 2.08 µM
Cc1ccccc1CN(C)CC(=O)Nc1ccccc1-c1ccccc1 | 3.3 µM
CN(C(=O)CSc1nc(-c2ccc(C(C)(C)C)cc2)c(C#N)c(=O)[nH]1)C1CCCCC1 | 1.36 µM
Cc1cc(C(=O)Nc2nc(-c3ccccn3)cs2)ccc1[N+](=O)[O-] | 1.69 µM
COC(=O)c1c(NC(=O)c2ccc([N+](=O)[O-])o2)sc2c1CCN(C(C)C)C2 | 4 µM
Cc1cc(C)cc(C(=O)N2CCC(CCC(=O)NC3CC3)CC2)c1 | > 15 µM (inactive)
COc1ccc(CN2C(=O)c3ccccc3C(/C=N/OCc3ccc(Cl)cc3)C2=O)cc1 (stereo unspecified) | 1.11 µM
CC(=O)O[C@H]1C[C@@]2(C)[C@@H](C[C@@H](O)[C@H]3[C@@]4(C)CC[C@@H](O)[C@@H](C)C4CC[C@@]32C)/C1=C(\CCC=C(C)C)C(=O)O (stereo partly specified) | 1.58 µM
CC(C)N1CCc2c(sc(NC(=O)c3ccc(S(=O)(=O)N(C)CC4CCCO4)cc3)c2C(N)=O)C1 (stereo unspecified) | > 15 µM (inactive)
CCOC(=O)c1ccc(NC(=O)c2nc[nH]c2C(=O)N[C@@H](Cc2ccccc2)C(=O)OC(C)(C)C)cc1 | 3.17 µM
CNC(=S)N/N=C/c1cn(Cc2ccc(C)cc2)c2ccccc12 | 5.33 µM
COc1cc2c(C#N)c(N3CCN(c4ccccc4OC)CC3)nc(N)c2c(N)n1 | 4.67 µM
O=C(CC1CCCCC1)c1c(O)c2ccccc2oc1=O | 3.54 µM
Cc1cc(Nc2ccccc2)nn1C(=O)c1ccc(Br)cc1 | 14.6 µM
CN(C)CCCNC(=S)NCC(c1ccc(Cl)cc1Cl)c1c[nH]c2ccccc12 (stereo unspecified) | 7.22 µM
COc1ccccc1CN1CC(C(=O)NCc2ncccc2C)CCC1=O (stereo unspecified) | > 15 µM (inactive)
NC(N)=N/N=C/c1ccc(N(c2ccccc2)c2ccccc2)cc1 | 2.06 µM
Oc1c(Br)cc(Br)cc1/C=N/NC(=S)N[C@H]1CC2C=CC1C2 (stereo partly specified) | 0.15 µM
Clc1ccc(N2COC3c4cccc5cccc(c45)C32)cc1 (stereo unspecified) | 7.55 µM
CCN(CC)CCN(C(=O)C1=COCCO1)c1nc2cc(C)cc(C)c2s1 | > 15 µM (inactive)
O=c1cc2oc3cc(O)c(O)cc3c(-c3ccccc3[N+](=O)[O-])c-2cc1O | 9.36 µM
CCOc1cccc(/C=N/NC(=S)Nc2ccccc2[N+](=O)[O-])c1O | 0.095 µM

SMILES | EC50
O=C(Nc1ccc(N2CCCC2)c(S(=O)(=O)Nc2cccc(C(F)(F)F)c2)c1)c1cccs1 | 3.95 µM
O=C(Nc1ccc(Oc2ccc(Cl)cc2)c(Cl)c1)c1cc(I)cc(I)c1O | < 0.06 µM
COc1cc(/C=C2\SC(=Nc3ccccc3)N(CCc3c[nH]c4ccccc34)C2=O)ccc1OC(C)C(=O)O (stereo unspecified) | 1.42 µM
CCn1cnc2c1c(=O)n(CC(=O)Nc1cc(C)on1)c(=O)n2Cc1ccccc1 | > 15 µM (inactive)
Cc1cccc2sc(NNC(=O)c3cc(-c4cccs4)nc4ccccc34)nc12 | 1.05 µM
COC(=O)c1ccc(CSc2n[nH]c(=S)s2)o1 | 3.25 µM
Cc1ccc(C(=O)N2CCOCC2)cc1S(=O)(=O)N1CCOCC1 | > 15 µM (inactive)
C/C(N)=C(/C#N)C(=O)COC(=O)c1cc(-c2ccc(Br)cc2)nc2ccccc12 | 9.97 µM
Cc1nc(-c2ccc(S(=O)(=O)Nc3ccc(Br)cc3Cl)s2)cs1 | 5.14 µM
CCN1/C(=C/C=C/c2oc3ccc(-c4ccccc4)cc3[n+]2CC)Oc2ccc(-c3ccccc3)cc21 | 2.07 µM
COc1cc(OC)c([C@H]2C=C(C)[C@H]3C[C@@H]2C3(C)C)c(OC)c1 | 2.6 µM
Nc1nonc1-c1nc2ccccc2n1CC(=O)N/N=C\c1ccc(-c2ccc(Cl)cc2)o1 | 1.07 µM
Cc1ccc(O)c(C(=O)CC(=O)c2ccccc2Cl)c1 | 3.52 µM
COc1ccc(N=Nc2ccc(O)c3ncccc23)cc1 | < 0.06 µM
COc1ccc(C(=O)NNC(=S)NC(=O)c2ccc(Br)o2)cc1OC | 0.779 µM
CC(/C=C/c1ccc(N(C)C)cc1)=N\N=C1\NC(=O)CC(C(=O)Nc2ccccc2)S1 (stereo unspecified) | 3.16 µM
COc1ccc(N=Nc2cc(-c3ccccc3)ccc2O)cc1 | 13.1 µM
Cc1[nH]n(-c2ccc(Br)cc2)c(=O)c1/C=N/NC(=O)c1ccccc1 | 0.428 µM
CCC(NC(=O)Nc1nnc(C(F)(F)F)s1)(C(F)(F)F)C(F)(F)F | 1.42 µM
CC(C)N1CCc2c(sc(NC(=O)CCS(=O)(=O)c3ccccc3)c2C#N)C1 | > 15 µM (inactive)
O=C(Nc1ncc(Cc2ccccc2)s1)c1cccs1 | 1.9 µM
CCCCNc1c(-c2ccc(OC)c(SC3CCCCC3)c2)nc2cc(C)ccn12 | 3.89 µM
Cc1ccc(C)c(NC(=O)CSc2nc3nc(-c4cccs4)cc(C(F)(F)F)c3c(=O)[nH]2)c1 | 3.18 µM
CC(C)=CCOc1ccc([C@@H]2COc3c(ccc4c3C=CC(C)(C)O4)C2)c(O)c1 | 1.83 µM
Nc1c(Cl)cc(C2=NCCn3c2c2ccc([N+](=O)[O-])cc2[n+]3[O-])cc1Cl | 2.44 µM
CCCn1c(=O)c(C(=O)Nc2ncccc2C)c(O)c2ccccc21 | 5.16 µM

SMILES | EC50
CCCCCCn1c(=O)c(C(=O)Nc2cnccn2)c(O)c2ccccc21 | 2.98 µM
CCCn1c(NC(=O)c2ccccc2Br)nc2ccccc21 | 5.66 µM
CN(c1ccccc1)c1nc(N2CCCC2)nc(-n2ccnc2)n1 | 10.8 µM
CCOC(=O)CCC(=O)O[C@H]1[C@H](O[C@@H]2[C@@H](C)[C@H](O[C@H]3C[C@@](C)(OC)[C@@H](O)[C@H](C)O3)[C@@H](C)C(=O)O[C@H](CC)[C@@](C)(O)[C@H](O)[C@@H](C)C(=O)[C@H](C)C[C@@]2(C)O)O[C@H](C)C[C@@H]1N(C)C | < 0.06 µM
COc1ccc(N2CC(C(=O)Nc3nnc(SCc4cccnc4)s3)CC2=O)cc1 (stereo unspecified) | > 15 µM (inactive)
O=C(O)c1ccccc1-c1ccccc1C(=O)Nc1ccc(-c2nc3cc(Cl)ccc3o2)cc1 | 5.3 µM
CCOC(=O)C1=C(N)Oc2ccc3ccccc3c2C1c1ccc(O)cc1 (stereo unspecified) | 5.68 µM
Nc1c(-c2ccccc2)c(CSc2nc3ccccc3[nH]2)nn1-c1cccc(Cl)c1 | 1.51 µM
COc1ccc(-c2sc3ccccc3c2C#CC2(O)CCCCC2)cc1 | 4.58 µM
CC12CCC(C/C1=N\N=C1\NC(=O)/C(=C\c3ccc(Cl)cc3)S1)C2(C)C (stereo unspecified) | 1.13 µM
COc1cnc(-c2ccccn2)nc1Oc1ccc(Cl)c2ccccc12 | 0.142 µM
O=C(c1cccs1)N1CCC(c2nc3c(nnn3Cc3ccccc3Cl)c(=O)[nH]2)CC1 | 7.09 µM
N=C1SCC(=O)N1c1ncc(Cc2ccc(F)cc2)s1 | 1 µM
Cc1ccc(C(=O)NNC(=S)NC(=O)c2ccc(Cl)cc2)cc1 | 0.074 µM
O=C(NCc1ccccn1)Nc1ccc(F)c(Cl)c1 | > 15 µM (inactive)
C/C(=N\N=C(/N)SC1CC(=O)N(c2ccc(Br)cc2)C1=O)c1cccs1 (stereo unspecified) | 5.03 µM
O=c1[nH]c(=O)n([C@H]2C[C@H](O)[C@@H](CO)O2)cc1F | 0.689 µM
COc1cc(C(=O)NNC(=S)NC(=O)c2ccc3c(c2)OCO3)cc(OC)c1OC | 1.63 µM
Oc1c(CN2CCc3ccccc3C2)cc(Cl)c2cccnc12 | 2.15 µM
CC[C@H]1OC(=O)[C@H](C)[C@@H](O[C@H]2C[C@@](C)(OC)[C@@H](O)[C@H](C)O2)[C@H](C)[C@@H](O[C@@H]2O[C@H](C)C[C@H](N(C)C)[C@H]2O)[C@](C)(O)C[C@@H](C)CN(C)[C@H](C)[C@@H](O)[C@]1(C)O | < 0.06 µM
FC(F)(F)c1cccc(-c2cc3ccccc3nc2N2CCCC2)c1 | 3.6 µM
CC(=O)c1cccc(OC(=O)c2ccc3c(=O)n4c(nc3c2)CCC4)c1 | 13.7 µM
Cc1cc(NC(=O)/C=C/c2ccccc2Cl)n(-c2nc3ccccc3[nH]2)n1 | 1.9 µM
O=[N+]([O-])c1cccc(/C=C/c2ccc3cccc(O)c3n2)c1 | 2.25 µM
Cc1ccc2nc(Nc3nc(-c4ccccc4)cc(=O)[nH]3)nc(C)c2c1 | 2.64 µM
CCN1C(=O)/C(=C\c2ccc(-c3ccc([N+](=O)[O-])cc3OC)o2)SC1=Nc1cccc(C(=O)O)c1 | 3.57 µM

SMILES | EC50
O=C(Cc1ccccc1)NNC(=S)NC(=O)c1cccs1 | 3.83 µM
O=c1c2cc(Br)ccc2nc(-c2cccc(Cl)c2)n1O | 1.09 µM
CCOC(=O)c1sc(NC(=O)c2cc(-c3ccccc3C)nc3ccccc23)c(C#N)c1C | 1.36 µM
O=C(CN(c1cccc(Br)c1)S(=O)(=O)c1ccccc1)N/N=C/c1cc([N+](=O)[O-])ccc1O | 0.441 µM
COc1cccc(-c2cc(C(F)(F)F)nc(N3CCCCC3)n2)c1 | 4.86 µM
CC1CC(C)(C)n2c(O)c(N=NC(N)=S)c3cccc1c32 (stereo unspecified) | 4.84 µM
O=C(N/N=C/c1c(O)ccc2ccccc12)c1ccc(Br)o1 | 2.3 µM
Cc1cc(Oc2cnn(C(C)(C)C)c(=O)c2Cl)cc(C(C)C)c1 | 4.37 µM
O=C(O)CCn1cc(/C=C/C(=O)c2ccc(Cl)cc2)c(-c2cccc(Br)c2)n1 | 3.68 µM
O=C(Oc1c(Cl)cc(Cl)c2cccnc12)c1cccs1 | 1.08 µM
O=c1c2ccccc2c(-c2ccccc2)nn1Cc1c(Cl)cccc1Cl | 6.08 µM
Cc1nnc(SCC2=C(C(=O)O)N3C(=O)C(NC(=O)Cn4ncc(Cl)c4C)C3SC2)s1 (stereo unspecified) | < 0.06 µM
c1ccc2c(Nc3nc4c(s3)CCCC4)cccc2c1 | 1.17 µM
COc1ccc(NC(=O)c2nc[nH]c2C(=O)N[C@@H](CC(C)C)C(=O)OC(C)(C)C)cc1 | 3.28 µM
COc1cccc(N/N=C/c2cccc(Br)c2O)c1 | 15.6 µM
Cc1ccc(C(=O)C(c2ccccc2)N2Cc3ccccc3C2=N)cc1 (stereo unspecified) | 5.75 µM
COc1ccc(C(=O)Nc2cccc(/C=C(\CCC(=O)O)c3nc4ccccc4s3)c2)cc1 | 8.09 µM
O=S(=O)(Nc1c(S(=O)(=O)c2ccccc2)c2nc3ccccc3nc2n1C1CCCCC1)c1ccccc1 | 2.71 µM
Cc1nn(CC(O)CN2c3ccccc3Sc3ccccc32)c(C)c1Br (stereo unspecified) | 2.15 µM
COC(=O)c1ccc(CN(c2ccc(C(=O)O)c(O)c2)S(=O)(=O)c2ccc(Cl)c([N+](=O)[O-])c2)cc1 | 2.63 µM
COc1ccccc1CN1CN(S(=O)(=O)c2ccccc2)c2nc3ccccc3nc21 | 5.13 µM
Cc1cc(C)cc(-n2c(C)cc(/C=C3\C(=N)N4N=C(CC(C)C)SC4=NC3=O)c2C)c1 | 2.67 µM
CCOC(=O)c1ccc(NC2=CC(=O)C(=O)c3ccccc32)cc1 | 3.48 µM
